Measurements: PubChem BioAssay (NCI)
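48-hour exposure; five concentrations; linearly interpolated endpoints. Here, GI50 denotes the concentration required for 50% inhibition of growth. At the TGI there is no net growth.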

What follows are compounds tested on SF-268 CNS (assay: NCI tumour cell line growth inhibition, 48 h).
`Cn1c(=O)c(Cc2ccccc2F)cc2cnc(NC3CCOCC3)nc21` was tested, and the GI50 was > 25 µM and the TGI was > 25 µM.
Compound `CC1(C)[C@@H](OC(N)=O)[C@H]2O[C@H]2[C@]2(C=O)[C@H]3CC[C@]4(C)[C@@H](c5ccc(=O)oc5)[C@@H](Cl)C[C@]4(O)C3=CC[C@@H]12` has a GI50 of 0.0037 µM and a TGI of 0.00749 µM.
Compound `CCCCON(OC(=O)c1ccc2ccc3cccc4ccc1c2c34)C(C)=O` has a GI50 of 19.5 µM and a TGI of 40.5 µM.
For `Cc1[nH]c2ccccc2c(=O)c1CC=C(Cl)Cl`, the GI50 was 31.2 µM and the TGI was > 100 µM.
With `C1CCC([PH+](C2CCCCC2)C2CCCCC2[PH+](C2CCCCC2)C2CCCCC2)CC1.O=C(C1[CH-]CCCC1)C1CCCC[N-]1.[Au]` (stereo unspecified) the GI50 was 0.343 µM and the TGI was 1.91 µM.
For `Clc1ccc(C=Nc2ccc3c(c2)Cc2ccccc2-3)c(Cl)c1`, the TGI was > 100 µM.
`CN(C)CCN1C(=O)c2ccc3c4c(ccc(c24)C1=O)C(=O)N(CCN=C=S)C3=O` showed a GI50 of 0.0466 µM and a TGI of 0.29 µM.
Work on `O=C(/C=C\c1ccc(NCc2ccc(C(=O)O)cc2)cc1)CCl` yielded a GI50 of 10.6 µM and a TGI of 24.7 µM.
Work on `COc1cccc(C#Cc2ccccc2C#CCCCCO)c1` yielded a GI50 of 16.1 µM and a TGI of 33.5 µM.
Work on `CC(C)C[C@H](NC(=O)/C=C/Cn1ccc2ccccc2c1=O)B(O)O` yielded a GI50 of 4.98 µM and a TGI of 51.5 µM.
`CC1=C[C@H]2c3c(c(O)c(O)c4oc(-c5ccccc5)cc(=O)c34)[C@H](c3cc(O)c(O)c4oc(-c5ccccc5)cc(=O)c34)[C@H]2C(C)(C)C1` showed a GI50 of 0.541 µM and a TGI of 17 µM.
Work on `COc1ccc(/C=C/C(=O)C(CC2CCC2)C(=O)/C=C/c2ccc(OC)c(OC)c2)cc1OC` yielded a GI50 of 2.58 µM and a TGI of 9.51 µM.
For `CCCCCCCCCCCCCCCCCCOc1ccccc1CC(=O)OCC[N+]1(C)CCCC1`, the GI50 was 1.55 µM and the TGI was 3.34 µM.

What follows are compounds tested on SK-MEL-28 melanoma (assay: NCI tumour cell line growth inhibition, 48 h).
In the case of `Nc1ccc(-c2nc3ccc(Cc4ccc5nc(-c6ccc(N)cc6)[nH]c5c4)cc3[nH]2)cc1`, the GI50 is reported as 1.93 µM and the TGI is reported as 4.27 µM.
`O=S(=O)(Nc1cc(Sc2cccc3cccnc23)c(O)c2ccccc12)c1ccccc1` showed a GI50 of 0.801 µM and a TGI of 5.57 µM.
`CN(C)C(=O)[C@H](O)[C@H](Cc1ccccc1)NC(=O)c1cc2cc(Cl)ccc2[nH]1` was tested, and the GI50 was 19 µM and the TGI was 54.5 µM.
Compound `CC(C)(C[C@H]1CN(S(=O)(=O)c2cccc(C(F)(F)F)c2)c2cc(-c3cc(F)cc(OC(F)F)c3)ccc2O1)C(=O)O` has a GI50 of 10.9 µM and a TGI of 24.4 µM.
For `Cc1ccc(-c2nc3ccc(Cl)cc3c(=O)n2N2C(=O)CSC2c2ccccc2Cl)cc1` (stereo unspecified), the GI50 was 20.6 µM and the TGI was > 100 µM.
For `O=C(O)C1C(Br)(c2ccccc2)C1(Br)c1ccccc1` (stereo unspecified), the TGI was 52.6 µM.
In the case of `C#Cc1c(I)n(C2OC(CO[Si](C)(C)C(C)(C)C)C3OC(C)(C)OC32)c(=O)[nH]c1=O` (stereo unspecified), the GI50 is reported as 2 µM and the TGI is reported as 4.43 µM.
In the case of `CCSc1nc(SCC)c2cn[nH]c2n1`, the GI50 is reported as 64.6 µM and the TGI is reported as > 100 µM.
For `ClCC[N+]12CC[N+](CCCl)(CC1)C2`, the TGI was > 100 µM.
In the case of `COc1cc(C(=O)c2cc(C)c3[nH]c4ccc(C)cc4c3c2C)cc(OC)c1OC`, the GI50 is reported as 1.64 µM and the TGI is reported as > 100 µM.
`Cc1ccc2[nH]c(O)c(N=Nc3ccc(S(N)(=O)=O)cc3)c2c1` was tested, and the GI50 was 24.4 µM and the TGI was > 25 µM.
With `C/C(N=NC(=S)N(C)C)=C1\C=CC=CN1O` the TGI was > 100 µM.
`C=C1CCC(CC[C@@H]2CC[C@]3(OC2)O[C@@]2(O)CC[C@]3(C)OC2(C)C)C(C)(C)[C@H]1C/C=C1/C(=O)OC[C@@H]1O` (stereo partly specified) was tested, and the TGI was 3.58 µM.
`Cn1c(=O)c(Cc2ccccc2F)cc2cnc(NC3CCOCC3)nc21` was tested, and the GI50 was > 25 µM and the TGI was > 25 µM.
`CC1(C)[C@@H](OC(N)=O)[C@H]2O[C@H]2[C@]2(C=O)[C@H]3CC[C@]4(C)[C@@H](c5ccc(=O)oc5)[C@@H](Cl)C[C@]4(O)C3=CC[C@@H]12` showed a GI50 of 0.00794 µM and a TGI of 0.0268 µM.
`CCCCON(OC(=O)c1ccc2ccc3cccc4ccc1c2c34)C(C)=O` was tested, and the GI50 was 27.1 µM and the TGI was 81.7 µM.
With `Cc1[nH]c2ccccc2c(=O)c1CC=C(Cl)Cl` the GI50 was 52.9 µM and the TGI was > 100 µM.
For `Clc1ccc(C=Nc2ccc3c(c2)Cc2ccccc2-3)c(Cl)c1`, the TGI was > 100 µM.
`CN(C)CCN1C(=O)c2ccc3c4c(ccc(c24)C1=O)C(=O)N(CCN=C=S)C3=O` was tested, and the GI50 was 0.0839 µM and the TGI was 0.209 µM.
Compound `O=C(/C=C\c1ccc(NCc2ccc(C(=O)O)cc2)cc1)CCl` has a GI50 of 16.8 µM and a TGI of 31.4 µM.
For `COc1cccc(C#Cc2ccccc2C#CCCCCO)c1`, the GI50 was 15.3 µM and the TGI was 30.3 µM.
Work on `CC(C)C[C@H](NC(=O)/C=C/Cn1ccc2ccccc2c1=O)B(O)O` yielded a GI50 of 3.85 µM and a TGI of 36 µM.
Compound `CC1=C[C@H]2c3c(c(O)c(O)c4oc(-c5ccccc5)cc(=O)c34)[C@H](c3cc(O)c(O)c4oc(-c5ccccc5)cc(=O)c34)[C@H]2C(C)(C)C1` has a GI50 of 1.12 µM and a TGI of 9.51 µM.
For `COc1ccc(/C=C/C(=O)C(CC2CCC2)C(=O)/C=C/c2ccc(OC)c(OC)c2)cc1OC`, the GI50 was 2.16 µM and the TGI was 5.39 µM.
With `CCCCCCCCCCCCCCCCCCOc1ccccc1CC(=O)OCC[N+]1(C)CCCC1` the GI50 was 2.72 µM and the TGI was 7.86 µM.

Each compound was assayed on SNB-75 CNS (assay: NCI tumour cell line growth inhibition, 48 h).
`Nc1ccc(-c2nc3ccc(Cc4ccc5nc(-c6ccc(N)cc6)[nH]c5c4)cc3[nH]2)cc1` gave a GI50 of 12.3 µM and a TGI of 28.9 µM.
`O=S(=O)(Nc1cc(Sc2cccc3cccnc23)c(O)c2ccccc12)c1ccccc1` was tested, and the GI50 was 3.23 µM and the TGI was 16.9 µM.
`CN(C)C(=O)[C@H](O)[C@H](Cc1ccccc1)NC(=O)c1cc2cc(Cl)ccc2[nH]1` showed a GI50 of 17.4 µM and a TGI of 65.6 µM.
With `CC(C)(C[C@H]1CN(S(=O)(=O)c2cccc(C(F)(F)F)c2)c2cc(-c3cc(F)cc(OC(F)F)c3)ccc2O1)C(=O)O` the GI50 was 5.31 µM and the TGI was 23.4 µM.
`Cc1ccc(-c2nc3ccc(Cl)cc3c(=O)n2N2C(=O)CSC2c2ccccc2Cl)cc1` (stereo unspecified) gave a GI50 of 1.39 µM and a TGI of 4.74 µM.
For `O=C(O)C1C(Br)(c2ccccc2)C1(Br)c1ccccc1` (stereo unspecified), the TGI was 93.9 µM.
With `C#Cc1c(I)n(C2OC(CO[Si](C)(C)C(C)(C)C)C3OC(C)(C)OC32)c(=O)[nH]c1=O` (stereo unspecified) the GI50 was 14.4 µM and the TGI was 29.4 µM.
For `CCSc1nc(SCC)c2cn[nH]c2n1`, the GI50 was > 100 µM and the TGI was > 100 µM.
`ClCC[N+]12CC[N+](CCCl)(CC1)C2` was tested, and the TGI was > 100 µM.
`COc1cc(C(=O)c2cc(C)c3[nH]c4ccc(C)cc4c3c2C)cc(OC)c1OC` was tested, and the GI50 was < 0.01 µM.
In the case of `Cc1ccc2[nH]c(O)c(N=Nc3ccc(S(N)(=O)=O)cc3)c2c1`, the GI50 is reported as 8.46 µM and the TGI is reported as > 25 µM.
In the case of `C/C(N=NC(=S)N(C)C)=C1\C=CC=CN1O`, the TGI is reported as > 100 µM.
Compound `C=C1CCC(CC[C@@H]2CC[C@]3(OC2)O[C@@]2(O)CC[C@]3(C)OC2(C)C)C(C)(C)[C@H]1C/C=C1/C(=O)OC[C@@H]1O` (stereo partly specified) has a TGI of 19.3 µM.
With `Cn1c(=O)c(Cc2ccccc2F)cc2cnc(NC3CCOCC3)nc21` the GI50 was > 8.48 µM and the TGI was > 25 µM.
`CC1(C)[C@@H](OC(N)=O)[C@H]2O[C@H]2[C@]2(C=O)[C@H]3CC[C@]4(C)[C@@H](c5ccc(=O)oc5)[C@@H](Cl)C[C@]4(O)C3=CC[C@@H]12` gave a GI50 of 0.00449 µM and a TGI of 0.00972 µM.
Work on `CCCCON(OC(=O)c1ccc2ccc3cccc4ccc1c2c34)C(C)=O` yielded a GI50 of 19.9 µM and a TGI of 41.7 µM.
`Cc1[nH]c2ccccc2c(=O)c1CC=C(Cl)Cl` showed a GI50 of 10.6 µM and a TGI of 37.5 µM.
In the case of `C1CCC([PH+](C2CCCCC2)C2CCCCC2[PH+](C2CCCCC2)C2CCCCC2)CC1.O=C(C1[CH-]CCCC1)C1CCCC[N-]1.[Au]` (stereo unspecified), the GI50 is reported as 0.179 µM and the TGI is reported as 1.05 µM.
For `Clc1ccc(C=Nc2ccc3c(c2)Cc2ccccc2-3)c(Cl)c1`, the TGI was > 100 µM.
`CN(C)CCN1C(=O)c2ccc3c4c(ccc(c24)C1=O)C(=O)N(CCN=C=S)C3=O` was tested, and the GI50 was 0.058 µM and the TGI was 0.198 µM.
`O=C(/C=C\c1ccc(NCc2ccc(C(=O)O)cc2)cc1)CCl` showed a GI50 of 13.4 µM and a TGI of 26.3 µM.
In the case of `COc1cccc(C#Cc2ccccc2C#CCCCCO)c1`, the GI50 is reported as 12.8 µM and the TGI is reported as 26.3 µM.
For `CC(C)C[C@H](NC(=O)/C=C/Cn1ccc2ccccc2c1=O)B(O)O`, the GI50 was 3.2 µM and the TGI was 16.3 µM.
Work on `CC1=C[C@H]2c3c(c(O)c(O)c4oc(-c5ccccc5)cc(=O)c34)[C@H](c3cc(O)c(O)c4oc(-c5ccccc5)cc(=O)c34)[C@H]2C(C)(C)C1` yielded a GI50 of 0.286 µM and a TGI of 5.76 µM.
`COc1ccc(/C=C/C(=O)C(CC2CCC2)C(=O)/C=C/c2ccc(OC)c(OC)c2)cc1OC` gave a GI50 of 1.32 µM and a TGI of 2.74 µM.
In the case of `CCCCCCCCCCCCCCCCCCOc1ccccc1CC(=O)OCC[N+]1(C)CCCC1`, the GI50 is reported as 1.26 µM and the TGI is reported as 3.07 µM.
